The results in this text go back to patent publication US11787816B2, “Chlorin compound, and preparation and use thereof” (Southwest Jiaotong University, priority 2021, dated 2023).

The subject of this series is murine mammary carcinoma 4T1 cells. The experiment in a line: Photosensitizer-mediated PDT, in vitro proliferation (MTT), 4T1. It counts as cell-based.

With “3-n-hexylaminomethyl-3-devinyl-chlorin e4 disodium salt [CEFN]”, the “cell viability (%)” value is 97 ± 2% (1 μg/mL, 660 nm, 2 J/cm^2); 89 ± 3% (1 μg/mL, 660 nm, 4 J/cm^2); 81 ± 3% (1 μg/mL, 660 nm, 8 J/cm^2); 97 ± 3% (1 μg/mL, no light); 79 ± 3% (2 μg/mL, 660 nm, 2 J/cm^2); 52 ± 2% (2 μg/mL, 660 nm, 4 J/cm^2). Also, the “cell viability (%)” value runs as follows: (2 μg/mL, 660 nm, 8 J/cm^2) 39 ± 2%; (5 μg/mL, 660 nm, 2 J/cm^2) 59 ± 2%; (5 μg/mL, 660 nm, 4 J/cm^2) 24 ± 3%; (5 μg/mL, 660 nm, 8 J/cm^2) 18 ± 1%; (5 μg/mL, no light) 98 ± 2%; (10 μg/mL, 660 nm, 2 J/cm^2) 38 ± 3%. The “cell viability (%)” value stood at 10 ± 2% (10 μg/mL, 660 nm, 4 J/cm^2); 8 ± 3% (10 μg/mL, 660 nm, 8 J/cm^2); 101 ± 3% (10 μg/mL, no light).
Consider “3-hexoxymethyl-3-devinyl-chlorin e4 disodium salt [CEFO]”, for which the “cell viability (%)” value is, setting by setting: (1 μg/mL, 660 nm, 2 J/cm^2) 86 ± 3%; (1 μg/mL, 660 nm, 4 J/cm^2) 84 ± 4%; (1 μg/mL, 660 nm, 8 J/cm^2) 78 ± 3%; (1 μg/mL, no light) 103 ± 2%; (2 μg/mL, 660 nm, 2 J/cm^2) 67 ± 3%; (2 μg/mL, 660 nm, 4 J/cm^2) 41 ± 3%. For the same substance, the “cell viability (%)” value is recorded as 39 ± 2% (2 μg/mL, 660 nm, 8 J/cm^2); 103 ± 2% (2 μg/mL, no light); 38 ± 2% (5 μg/mL, 660 nm, 2 J/cm^2); 21 ± 2% (5 μg/mL, 660 nm, 4 J/cm^2); 19 ± 42% (5 μg/mL, 660 nm, 8 J/cm^2); 99 ± 2% (5 μg/mL, no light). Further, the “cell viability (%)” value runs as follows: (10 μg/mL, 660 nm, 2 J/cm^2) 29 ± 1%; (10 μg/mL, 660 nm, 4 J/cm^2) 5 ± 1%; (10 μg/mL, 660 nm, 8 J/cm^2) 3 ± 1%; (10 μg/mL, no light) 100 ± 3%.
